Earlier results in patent US20090004049A1, “Method of irradiation using process of adding vitamin C” (priority 2007, published 2009).

Tested on: patients with cancer
Details: 10 g of vitamin C administered to patients with cancer

SMILES: O=C1O[C@H]([C@@H](O)CO)C(O)=C1O [vitamin C]
- increase of survival rate of patients compared with control: 4 times
